Assay results: patent publication US11459334B2, “Substituted pyrrolo[2,1-f][1,2,4]triazines as KIT and/or PDGFR-α inhibitors” (SHENZHEN TARGETRX, INC., priority 2018, dated 2022)

Assays:
[1] = molecular target: Ba/F3 Kit D816V (Homo sapiens, UniProt P10721, D816V, cells depend on it); settings: read-out: Cell IC50 (nM) BaF3/Kit(D816V); 72 hours, CTG
[2] = Metabolic stability evaluation, human liver microsome experiment; assay type: in vitro ADME; settings: human liver microsomes, pH 7.4, 1 μM compound, 0.5 mg/mL protein; for microsomal CLint at 1 μM: read-out: CL human liver microsome experiment; for half-life at 1 μM: read-out: T½ human liver microsome experiment
Experimental: (§1) Microsome experiment: human liver microsome: 0.5 mg/mL, Xenotech; rat liver microsome: 0.5 mg/mL, Xenotech; coenzyme (NADPH/NADH): 1 mM, Sigma Life Science; magnesium chloride: 5 mM, 100 mM phosphate buffer (pH 7.4).
(§2) Preparation of stock solution: a certain amount of the example compound powder and control compound powder were accurately weighed, and respectively dissolved to 5 mM with DMSO.
(§3) Preparation of phosphate buffer (100 mM, pH7.4): 150 mL of 0.5M potassium dihydrogen phosphate and 700 mL of 0.5M dipotassium hydrogen phosphate prepared beforehand were mixed, with pH of the mixture adjusted to 7.4 with 0.5M dipotassium hydrogen phosphate solution. Before use, the mixture was diluted by 5 folds with ultrapure water and magnesium chloride was added to obtain the phosphate buffer (100 mM), which contains 100 mM potassium phosphate, 3.3 mM magnesium chloride, and has pH 7.4.
(§4) NADPH regeneration system solution (containing 6.5 mM NADP, 16.5 mM G-6-P, 3 U/mL G-6-P D, 3.3 mM magnesium chloride) was prepared, and placed on wet ice before use.
(§5) Preparation of stop solution: a solution of 50 ng/mL propranolol hydrochloride and 200 ng/mL tolbutamide (internal standard) in acetonitrile. 25057.5 μL of phosphate buffer (pH 7.4) was taken into a 50 mL centrifuge tube, added with 812.5 μL of human liver microsome, and mixed well to obtain a liver microsome diluent with a protein concentration of 0.625 mg/mL. 25057.5 μL of phosphate buffer (pH 7.4) was taken into a 50 mL centrifuge tube, added with 812.5 μL of SD rat liver microsome, and mixed well to obtain a liver microsome diluent with a protein concentration of 0.625 mg/mL.
(§6) Incubation of the samples: the stock solutions of the corresponding compounds were respectively diluted to 0.25 mM with an aqueous solution containing 70% acetonitrile to obtain working solutions for later use. 398 μL of human liver microsome and rat liver microsome diluents were respectively taken and added to a 96-well incubation plate (N=2), added with 2 μL of 0.25 mM working solution respectively, and mixed well.
(§7) Determination of metabolic stability: 300 μL of pre-cooled stop solution was added to each well of a 96-well deep-well plate, and the plate was placed on ice as a stop plate. The 96-well incubation plate and the NADPH regeneration system were placed in a 37° C. water bath, shaken at 100 rpm, and pre-incubated for 5 minutes. 80 μL of incubation solution was taken out of each well of the incubation plate and added to the stop plate, mixed well, and supplemented with 20 μL of NADPH regeneration system solution to obtain the 0 min sample. Then 80 μL of NADPH regeneration system solution was added to each well of the incubation plate to initiate the reaction and start timing. The reaction concentration of the corresponding compound was 1 μM, and the protein concentration was 0.5 mg/mL. At 10, 30, and 90 minutes of reaction, 100 μL of the reaction solution was taken and added to the stop plate, and vortexed for 3 minutes to stop the reaction. The stop plate was centrifuged at 5000×g for 10 min at 4° C. 100 μL of supernatant was taken to a 96-well plate pre-added with 100 μL of distilled water, mixed well, and subjected to sample analysis by LC-MS/MS.
(§8) Data analysis: the peak areas of the corresponding compound and internal standard were detected through the LC-MS/MS system, and the ratio of the peak area of the compound to the internal standard was calculated.

[3] = Metabolic stability evaluation, rat liver microsome experiment; assay type: in vitro ADME; settings: SD, rat liver microsomes, pH 7.4, 1 μM compound, 0.5 mg/mL protein; for microsomal CLint at 1 μM: read-out: CL rat liver microsome experiment; for half-life at 1 μM: read-out: T½ rat liver microsome experiment
Experimental: as §1, §2, §3, §4, §5, §6, §7, §8

Row | SMILES | GI50 [1] [nM] | microsomal CLint at 1 μM [2] [µL/min/mg] | half-life at 1 μM [2] [min] | microsomal CLint at 1 μM [3] [µL/min/mg] | half-life at 1 μM [3] [min]
1 | Cn1cc(-c2cc3c(N4CCN(c5ncc([C@](C)(N)c6ccc(F)cc6)cn5)CC4)ncnn3c2)cn1 [Compound A, (R)-1-(4-fluorophenyl)-1-(2-(4-(6-(1-methyl-1H-pyrazol-4-yl)pyrrolo[2,1-f][1,2,4]triazin-4-yl)piperazin-1-yl)pyrimidin-5-yl)ethan-1-amine, reference compound] |  | 28.8 | 48.1 | 41.5 | 33.4
2 | [2H]C([2H])([2H])[C@](N)(c1ccc(F)cc1)c1cnc(N2CCN(c3ncnn4cc(-c5cnn(C)c5)cc34)CC2)nc1 [Compound T-2-S, (S)-1-(4-fluorophenyl)-1-(2-(4-(6-(1-methyl-1H-pyrazol-4-yl)pyrrolo[2,1-f][1,2,4]triazin-4-yl)piperazin-1-yl)pyrimidin-5-yl)ethan-2,2,2-d3-1-amine] | 1 to 50 |  |  |  | 
3 | [2H]C([2H])([2H])n1cc(-c2cc3c(N4CCN(c5ncc([C@@](N)(c6ccc(F)cc6)C([2H])([2H])[2H])cn5)CC4)ncnn3c2)cn1 [Compound T-3-S, (S)-1-(4-fluorophenyl)-1-(2-(4-(6-(1-(methyl-d3)-1H-pyrazol-4-yl)pyrrolo[2,1-f][1,2,4]triazin-4-yl)piperazin-1-yl)pyrimidin-5-yl)ethan-2,2,2-d3-1-amine] | 1 to 50 | 13 | 107 | 15.6 | 89.1
4 | [2H]C1([2H])N(c2ncc([C@](C)(N)c3ccc(F)cc3)cn2)C([2H])([2H])C([2H])([2H])N(c2ncnn3cc(-c4cnn(C)c4)cc23)C1([2H])[2H] [Compound T-4-R, (R)-1-(4-fluorophenyl)-1-(2-(4-(6-(1-methyl-1H-pyrazol-4-yl)pyrrolo[2,1-f][1,2,4]triazin-4-yl)piperazin-1-yl-2,2,3,3,5,5,6,6-d8)pyrimidin-5-yl)ethylamine] |  | 26 | 53.3 | 27 | 51.4
5 | [2H]C([2H])([2H])n1cc(-c2cc3c(N4C([2H])([2H])C([2H])([2H])N(c5ncc([C@@](C)(N)c6ccc(F)cc6)cn5)C([2H])([2H])C4([2H])[2H])ncnn3c2)cn1 [Compound T-5-S, (S)-1-(4-fluorophenyl)-1-(2-(4-(6-(1-(methyl-d3)-1H-pyrazol-4-yl)pyrrolo[2,1-f][1,2,4]triazin-4-yl)piperazin-1-yl-2,2,3,3,5,5,6,6-d8)pyrimidin-5-yl)ethylamine] | 1 to 50 |  |  |  | 
6 | [2H]C1([2H])N(c2ncc([C@](N)(c3ccc(F)cc3)C([2H])([2H])[2H])cn2)C([2H])([2H])C([2H])([2H])N(c2ncnn3cc(-c4cnn(C)c4)cc23)C1([2H])[2H] [Compound T-6-R, (R)-1-(4-fluorophenyl)-1-(2-(4-(6-(1-methyl-1H-pyrazol-4-yl)pyrrolo[2,1-f][1,2,4]triazin-4-yl)piperazin-1-yl-2,2,3,3,5,5,6,6-d8)pyrimidin-5-yl)ethan-2,2,2-d3-1-amine] |  | 24.2 | 57.3 | 38.6 | 35.9
7 | [2H]C1([2H])N(c2ncc([C@@](N)(c3ccc(F)cc3)C([2H])([2H])[2H])cn2)C([2H])([2H])C([2H])([2H])N(c2ncnn3cc(-c4cnn(C)c4)cc23)C1([2H])[2H] [Compound T-6-S, (S)-1-(4-fluorophenyl)-1-(2-(4-(6-(1-methyl-1H-pyrazol-4-yl)pyrrolo[2,1-f][1,2,4]triazin-4-yl)piperazin-1-yl-2,2,3,3,5,5,6,6-d8)pyrimidin-5-yl)ethan-2,2,2-d3-1-amine] | 1 to 50 | 13.1 | 105 | 15.5 | 89.4

The remaining lines, values ahead:

Row | GI50 [1] [nM] | microsomal CLint at 1 μM [2] [µL/min/mg] | half-life at 1 μM [2] [min] | microsomal CLint at 1 μM [3] [µL/min/mg] | half-life at 1 μM [3] [min] | SMILES
8 | 1 to 50 | 15.8 | 87.6 | 24.6 | 56.3 | Cn1cc(-c2cc3c(N4CCN(c5ncc([C@@](C)(N)c6ccc(F)cc6)cn5)CC4)ncnn3c2)cn1 [Avapritinib, (S)-1-(4-fluorophenyl)-1-(2-(4-(6-(1-methyl-1H-pyrazol-4-yl)pyrrolo[2,1-f][1,2,4]triazin-4-yl)piperazin-1-yl)pyrimidin-5-yl)ethylamine, reference compound]
9 | 1 to 50 | 15.6 | 88.6 |  |  | [2H]C([2H])([2H])n1cc(-c2cc3c(N4CCN(c5ncc([C@@](C)(N)c6ccc(F)cc6)cn5)CC4)ncnn3c2)cn1 [Compound T-1-S, (S)-1-(4-fluorophenyl)-1-(2-(4-(6-(1-(methyl-d3)-1H-pyrazol-4-yl)pyrrolo[2,1-f][1,2,4]triazin-4-yl)piperazin-1-yl)pyrimidin-5-yl)ethylamine]
10 |  | 27 | 51.3 | 37.2 | 37.3 | [2H]C([2H])([2H])n1cc(-c2cc3c(N4CCN(c5ncc([C@](N)(c6ccc(F)cc6)C([2H])([2H])[2H])cn5)CC4)ncnn3c2)cn1 [Compound T-3-R, (R)-1-(4-fluorophenyl)-1-(2-(4-(6-(1-(methyl-d3)-1H-pyrazol-4-yl)pyrrolo[2,1-f][1,2,4]triazin-4-yl)piperazin-1-yl)pyrimidin-5-yl)ethan-2,2,2-d3-1-amine]
11 | 1 to 50 | 15.3 | 90.5 | 17.1 | 81.1 | [2H]C1([2H])N(c2ncc([C@@](C)(N)c3ccc(F)cc3)cn2)C([2H])([2H])C([2H])([2H])N(c2ncnn3cc(-c4cnn(C)c4)cc23)C1([2H])[2H] [Compound T-4-S, (S)-1-(4-fluorophenyl)-1-(2-(4-(6-(1-methyl-1H-pyrazol-4-yl)pyrrolo[2,1-f][1,2,4]triazin-4-yl)piperazin-1-yl-2,2,3,3,5,5,6,6-d8)pyrimidin-5-yl)ethylamine]
12 | 1 to 50 |  |  |  |  | [2H]C([2H])([2H])n1cc(-c2cc3c(N4C([2H])([2H])C([2H])([2H])N(c5ncc([C@@](N)(c6ccc(F)cc6)C([2H])([2H])[2H])cn5)C([2H])([2H])C4([2H])[2H])ncnn3c2)cn1 [Compound T-7-S, (S)-1-(4-fluorophenyl)-1-(2-(4-(6-(1-(methyl-d3)-1H-pyrazol-4-yl)pyrrolo[2,1-f][1,2,4]triazin-4-yl)piperazin-1-yl-2,2,3,3,5,5,6,6-d8)pyrimidin-5-yl)ethan-2,2,2-d3-1-amine]
